Laboratory results from patent US20170369470A1, “Cyclic Compounds and Uses Thereof” (Karyopharm Therapeutics Inc., priority 2014, published 2017).

Legend:
Type in all cases: cell-based
[1] = system: MS751 cells; assay: MTT cell proliferation assay, MS751 cells; conditions: MS751 cells (human cervix squamous cell carcinoma metastasis); incubation approximately 64-72 hours; read-out: MTT Assay IC50 MS 751
Description: (§1) The MTT cell proliferation assay was used to study the cytotoxic properties of the compounds. The assay was performed according to the method described by Roche Molecular Biochemicals, with minor modifications. The assay is based on the cleavage of the tetrazolium salt, MTT, in the presence of an electron-coupling reagent. The water-insoluble formazan salt produced must be solubilized in an additional step. Cells grown in a 96-well tissue culture plate were incubated with the MTT solution for approximately 4 hours. After this incubation period, a water-insoluble formazan dye formed. After solubilization, the formazan dye was quantitated using a scanning multi-well spectrophotometer (ELISA reader). […] The cells were seeded at 5,000-10,000 cells in each well of 96-well plate in 100 μL of fresh culture medium and were allowed to attach overnight. The stock solutions of the compounds were diluted in 100 μL cell culture medium to obtain eight concentrations of each test compound, ranging from 1 nM to 30 μM. […] All optical densities were measured at 490 nm using a Vmax Kinetic Microplate Reader (Molecular Devices). In most cases, the assay was performed in duplicate and the results were presented as a mean percent inhibition to the negative control±SE. The following formula was used to calculate the percent of inhibition: Inhibition (%)=(1−(ODo/OD))×100.
(§2) The compounds were tested against MS751, Z138 and 3T3 cells. The MS751 cell line is derived from a metastasis to lymph node of human cervix from a patient diagnosed with squameous cell carcinoma of the cervix. The Z138 cell line is a mature B-cell acute lymphoblastic leukemia cell line derived from a patient with chronic lumphocytic leukemia. 3T3 cells are standard fibroblast cells; they were originally isolated from Swiss mouse embryo tissue.

[2] = system: Z138 cells; assay: MTT cell proliferation assay, Z138 cells; conditions: Homo sapiens, Z-138; Z138 cells (mantle cell lymphoma line); incubation approximately 64-72 hours
Description: as §1, §2

[3] = system: 3T3 cells; assay: MTT cell proliferation assay, 3T3 cells; conditions: NIH3T3; 3T3 fibroblast cells (Swiss mouse embryo); incubation approximately 64-72 hours
Description: as §1, §2

| SMILES | IC50 [1] [µM] | IC50 [2] [µM] | IC50 [3] [µM] |
| --- | --- | --- | --- |
| Nc1ccc(/C=C/C(=O)NCc2cc3cc(-c4ccc(C(=O)N5CCOCC5)cc4)cc(Cl)c3s2)cn1 [compound 500, (E)-3-(6-aminopyridin-3-yl)-N-((7-chloro-5-(4-(morpholine-4-carbonyl)phenyl)benzo[b]thiophen-2-yl)methyl)acrylamide] | < 1 | < 1 | > 10 |
| Nc1ccc(/C=C/C(=O)NCc2cc3cc(-c4ccc(C(=O)N5CCC(F)(F)CC5)cn4)cc(C(F)(F)F)c3[nH]2)cn1 [compound 501, (E)-3-(6-aminopyridin-3-yl)-N-((5-(5-(4,4-difluoropiperidine-1-carbonyl)pyridin-2-yl)-7-(trifluoromethyl)-1H-indol-2-yl)methyl)acrylamide] | > 10 | > 10 | > 10 |
| Cn1c(CNC(=O)/C=C/c2ccc(N)nc2)cc2cc(-c3ccc(C(=O)N4CCC(F)(F)CC4)cn3)cc(C(F)(F)F)c21 [compound 502, (E)-3-(6-aminopyridin-3-yl)-N-((5-(5-(4,4-difluoropiperidine-1-carbonyl)pyridin-2-yl)-1-methyl-7-(trifluoromethyl)-1H-indol-2-yl)methyl)acrylamide] | > 10 | > 10 | > 10 |
| Nc1ccc(/C=C/C(=O)NCc2cc3cc(-c4ccc(C(=O)N5CCC(F)(F)CC5)cn4)cc(C(F)(F)F)c3s2)cn1 [compound 503, (E)-3-(6-aminopyridin-3-yl)-N-((5-(5-(4,4-difluoropiperidine-1-carbonyl)pyridin-2-yl)-7-(trifluoromethyl)benzo[b]thiophen-2-yl)methyl)acrylamide] | 1 to 5 | 1 to 5 | > 10 |
| Nc1ccc(/C=C/C(=O)NCc2cc3cc(-c4ccc(C(=S)N5CCC(F)(F)CC5)cn4)cc(C(F)(F)F)c3s2)cn1 [compound 504, (E)-3-(6-aminopyridin-3-yl)-N-((5-(5-(4,4-difluoropiperidine-1-carbonothioyl)pyridin-2-yl)-7-(trifluoromethyl)benzo[b]thiophen-2-yl)methyl)acrylamide] | < 1 | < 1 | > 10 |
| Nc1ccc(/C=C/C(=O)NCc2cc3cc(-c4ccc(C(=O)N5CCC(O)(C(F)(F)F)CC5)cn4)cc(C(F)(F)F)c3s2)cn1 [compound 505, (E)-3-(6-aminopyridin-3-yl)-N-((5-(5-(4-hydroxy-4-(trifluoromethyl)piperidine-1-carbonyl)pyridin-2-yl)-7-(trifluoromethyl)benzo[b]thiophen-2-yl)methyl)acrylamide] | 1 to 5 | 1 to 5 | > 10 |
| Nc1ccc(/C=C/C(=O)NCc2cc3cc(-c4ccc(C(=O)N5CCOCC5)cn4)cc(C(F)(F)F)c3s2)cn1 [compound 506, (E)-3-(6-aminopyridin-3-yl)-N-((5-(5-(morpholine-4-carbonyl)pyridin-2-yl)-7-(trifluoromethyl)benzo[b]thiophen-2-yl)methyl)acrylamide] | 1 to 5 | 1 to 5 | > 10 |
| CC1(F)CCN(C(=O)c2ccc(-c3cc(C(F)(F)F)c4sc(CNC(=O)/C=C/c5ccc(N)nc5)cc4c3)nc2)C1 (stereo not drawn) [compound 507, (E)-3-(6-aminopyridin-3-yl)-N-((5-(5-(3-fluoro-3-methylpyrrolidine-1-carbonyl)pyridin-2-yl)-7-(trifluoromethyl)benzo[b]thiophen-2-yl)methyl)acrylamide] | 1 to 5 | 1 to 5 | > 10 |
| CC1(C)COCCN1C(=O)c1ccc(-c2cc(C(F)(F)F)c3sc(CNC(=O)/C=C/c4ccc(N)nc4)cc3c2)nc1 [compound 508, (E)-3-(6-aminopyridin-3-yl)-N-((5-(5-(3,3-dimethylmorpholine-4-carbonyl)pyridin-2-yl)-7-(trifluoromethyl)benzo[b]thiophen-2-yl)methyl)acrylamide] | 1 to 5 | 1 to 5 | > 10 |
| Nc1ccc(/C=C/C(=O)NCc2cc3cc(-c4ccc(C(=O)N5CCC(O)(C(F)(F)F)C5)cn4)cc(C(F)(F)F)c3s2)cn1 (stereo not drawn) [compound 509, (E)-3-(6-aminopyridin-3-yl)-N-((5-(5-(3-hydroxy-3-(trifluoromethyl)pyrrolidine-1-carbonyl)pyridin-2-yl)-7-(trifluoromethyl)benzo[b]thiophen-2-yl)methyl)acrylamide] | 1 to 5 | < 1 | > 10 |
| Nc1ccc(/C=C/C(=O)NCc2cc3cc(-c4ccc(C(=O)N5CCC(F)(F)C5)cn4)cc(C(F)(F)F)c3s2)cn1 [compound 510, (E)-3-(6-aminopyridin-3-yl)-N-((5-(5-(3,3-difluoropyrrolidine-1-carbonyl)pyridin-2-yl)-7-(trifluoromethyl)benzo[b]thiophen-2-yl)methyl)acrylamide] | 1 to 5 | 1 to 5 | > 10 |
| Nc1ccc(/C=C/C(=O)NCc2cc3cc(-c4ccc(C(=O)N5CC6(COC6)C5)cn4)cc(C(F)(F)F)c3s2)cn1 [compound 511, (E)-N-((5-(5-(2-oxa-6-azaspiro[3.3]heptane-6-carbonyl)pyridin-2-yl)-7-(trifluoromethyl)benzo[b]thiophen-2-yl)methyl)-3-(6-aminopyridin-3-yl)acrylamide] | < 1 | < 1 | > 10 |
| Nc1ccc(/C=C/C(=O)NCc2cc3cc(-c4ccc(C(=O)N5CC(F)(F)C5)cn4)cc(C(F)(F)F)c3s2)cn1 [compound 512, (E)-3-(6-aminopyridin-3-yl)-N-((5-(5-(3,3-difluoroazetidine-1-carbonyl)pyridin-2-yl)-7-(trifluoromethyl)benzo[b]thiophen-2-yl)methyl)acrylamide] | 1 to 5 | < 1 | 5 to 10 |
| Nc1ccc(/C=C/C(=O)NCc2cc3cc(-c4ccc(C(=O)N5CC[C@H](F)C5)cn4)cc(C(F)(F)F)c3s2)cn1 [compound 513, (S,E)-3-(6-aminopyridin-3-yl)-N-((5-(5-(3-fluoropyrrolidine-1-carbonyl)pyridin-2-yl)-7-(trifluoromethyl)benzo[b]thiophen-2-yl)methyl)acrylamide] | 1 to 5 | 1 to 5 | 5 to 10 |
| CC1(C)CN(C(=O)c2ccc(-c3cc(C(F)(F)F)c4sc(CNC(=O)/C=C/c5ccc(N)nc5)cc4c3)nc2)CCO1 [compound 514, (E)-3-(6-aminopyridin-3-yl)-N-((5-(5-(2,2-dimethylmorpholine-4-carbonyl)pyridin-2-yl)-7-(trifluoromethyl)benzo[b]thiophen-2-yl)methyl)acrylamide] | 1 to 5 | < 1 | > 10 |
| Nc1ccc(/C=C/C(=O)NCc2cc3cc(-c4ccc(C(=O)N5CC6(C5)CC(F)(F)C6)cn4)cc(C(F)(F)F)c3s2)cn1 [compound 515, (E)-3-(6-aminopyridin-3-yl)-N-((5-(5-(6,6-difluoro-2-azaspiro[3.3]heptane-2-carbonyl)pyridin-2-yl)-7-(trifluoromethyl)benzo[b]thiophen-2-yl)methyl)acrylamide] | < 1 | < 1 | > 10 |
| CC1(O)CCN(C(=O)c2ccc(-c3cc(C(F)(F)F)c4sc(CNC(=O)/C=C/c5ccc(N)nc5)cc4c3)nc2)CC1 [compound 516, (E)-3-(6-aminopyridin-3-yl)-N-((5-(5-(4-hydroxy-4-methylpiperidine-1-carbonyl)pyridin-2-yl)-7-(trifluoromethyl)benzo[b]thiophen-2-yl)methyl)acrylamide] | 1 to 5 | < 1 | > 10 |
| Nc1ccc(/C=C/C(=O)NCc2cc3cc(-c4ccc(C(=O)N5CCC(F)CC5)cn4)cc(C(F)(F)F)c3s2)cn1 [compound 517, (E)-3-(6-aminopyridin-3-yl)-N-((5-(5-(4-fluoropiperidine-1-carbonyl)pyridin-2-yl)-7-(trifluoromethyl)benzo[b]thiophen-2-yl)methyl)acrylamide] | 1 to 5 | 1 to 5 | > 10 |
| Nc1ccc(/C=C/C(=O)NCc2cc3cc(-c4ccc(C(=O)N5CCC(F)(F)CC5)cc4)cc(C(F)(F)F)c3s2)cn1 [compound 518, (E)-3-(6-aminopyridin-3-yl)-N-((5-(4-(4,4-difluoropiperidine-1-carbonyl)phenyl)-7-(trifluoromethyl)benzo[b]thiophen-2-yl)methyl)acrylamide] | 1 to 5 | 1 to 5 | > 10 |
| Nc1ccc(/C=C/C(=O)NCc2cc3cc(-c4ccc(C(=O)N5CC6(COC6)C5)cc4)cc(C(F)(F)F)c3s2)cn1 [compound 519, (E)-N-((5-(4-(2-oxa-6-azaspiro[3.3]heptane-6-carbonyl)phenyl)-7-(trifluoromethyl)benzo[b]thiophen-2-yl)methyl)-3-(6-aminopyridin-3-yl)acrylamide] | < 1 | < 1 | > 10 |
